Source: patent US8679513B2, “Cosmetic use of a jasmonic acid derivative for treating the hair and the scalp” (L'Oreal, priority 2009, dated 2014)

Test system: human epidermoid keratinocytes in culture (HaCaT) exposed to UV radiation
Assay: Evaluation of the antioxidant potential: DCFH-DA test
Assay type: cell-based
Details: HaCaT keratinocytes pretreated 24 hours; DCFH-DA 20 μM 30 minutes; 2 J/cm^2 UVA; compound used as 30% solution in water/dipropylene glycol (70/30); preliminary tests
Protocol: Evaluation of the Antioxidant Potential: DCFH-DA Test
The sodium salt of 3-hydroxy-2-pentylcyclopentane-acetic acid is used as a 30% solution in a water/dipropylene glycol mixture (70/30).
In a model of human epidermoid keratinocytes in culture (HaCaT) exposed to UV radiation, the global oxidative stress effect of the said compound after oxidation of a fluorescent probe (DCFH-DA) is measured.
The use of DCFH-DA as a marker of intracellular global oxidative stress is based on its physicochemical properties. It is a nonionic apolar molecule that is capable of diffusing across cell membranes. Once inside the cell, DCFH-DA is hydrolysed by intracellular esterases to a non-fluorescent compound: DCFH or 2,7-dichlorofluorescine. In the presence of activated oxygen species (H2O2; OH°), DCFH is rapidly oxidized to a highly fluorescent compound: DCF or 2,7-dichlorofluorescein.
HaCaT keratinocytes pretreated with the active agents for 24 hours are rinsed with PBS+ and incubated in the presence of DCFH-DA [20 μM] for 30 minutes at 37° C. in the dark.
After removal of the probe, the cells are exposed to 2 J/cm^2 of UVA (WG335 filter) in the presence of 1 ml/well of PBS+. The DCF fluorescence is evaluated immediately after the UVA exposure, by spectrofluorimetry (excitation 480 nm; emission 530 nm).

CCCCCC1C(O)CCC1CC(=O)[O-].[Na+] (stereo not shown) [sodium salt of 3-hydroxy-2-pentylcyclopentaneacetic acid]
antioxidant potential / protection against oxidative stress (DCF fluorescence): antioxidant potential with protection against oxidative stress
